# In article PMC7281150, “Inspired by Sea Urchins: Warburg Effect Mediated Selectivity of Novel Synthetic Non-Glycoside 1,4-Naphthoquinone-6S-Glucose Conjugates in Prostate Cancer” (Marine Drugs, 2020):
# Like-named read-outs stand apart in the source and are kept apart here.
# Key:
# PC-3 cells [1] = type: cell-based, human; conditions: PC-3, zVAD 100 µM, 48 h
# 22Rv1 cells [2] = assay: MTT cytotoxicity in 22Rv1 cells with or without N-acetyl-L-cysteine; type: cell-based, human; conditions: without NaC, FBS- and glucose-free media, 48 h, read-out: IC50 (viability of 22Rv1 cells)
# Protocol: (§1) Cell viability was determined by MTT assay. Cells were pre-incubated overnight in 96-well plates (6 × 10^3 cells/well in 100 μL/well). Then, the medium was replaced with fresh medium containing the determined compounds (100 μL/well), and cells were incubated for the indicated time. Next, 10 μL/well of (3-(4,5-dimethylthiazol-2-yl)-2,5-diphenyltetrazolium bromide) reagent were added. After 2–4 h of incubation, the media was aspirated and the plates were dried. Fifty microliters per well of DMSO were added to each well and the cell viability was measured using Infinite F200PRO reader (TECAN, Männedorf, Switzerland). Results were calculated by The GraphPad Prism software v. 7.05 (GraphPad Prism software Inc., La Jolla, CA, USA) and are represented as IC50 of the compounds against control cells treated with the solvent alone.
# 22Rv1 cells [3] = assay: Analysis of mitochondrial membrane potential (JC-1, FACS); type: cell-based, human
# Protocol: The drop down of mitochondrial membrane potential (ΔΨm) was measured using staining with ΔΨm-sensitive JC-1 dye (5,5′,6,6′-Tetrachloro-1,1′,3,3′-tetraethyl-imidacarbocyanine iodide) and flow cytometry technique. Cells (10^5 cells/well) were seeded in 12-well plates and incubated overnight. […] The cells were trypsinized, pelleted, resuspended in 100 µL of 2 µM JC-1/PBS, incubated for 1 h (37 °C, 5% CO2, in the dark), and analyzed by flow cytometry technique.
# PC-3 cells [4] = assay: Glucose uptake assay (2-NBDG), plate reader-based measurement; type: cell-based, human; conditions: PC-3, 24 h
# Protocol: (§2) The effects of the synthesized substance on glucose uptake were evaluated using the Glucose Uptake Cell-Based Assay Kit (Cayman chemicals, Ann Arbor, MI, USA) and two different methods. (a) Plate reader-based measurement: PC-3 cells (12 × 10^3 cells/well) were seeded in two 96-well plates, incubated overnight, and treated with the investigated drugs in 100 µL/well of glucose-free 0.1% FBS/RPMI media for 24 h. Then, the 10 µL/well of either 2-NBDG solution (2-deoxy-2-[(7-nitro-2,1,3-benzoxadiazol-4-yl)amino]-D-glucose, 5 mg/mL, for glucose uptake measurements) or vehicle solution (for cell viability measurements) in glucose-free 0.1% FBS/RPMI media were added to each well. […] Then, for glucose uptake measurements, the 100 µL/well of PBS were added and the fluorescence was measured using Infinite F200PRO reader (TECAN, Männedorf, Switzerland); or, for the cell viability measurements, 100 µL/well of media containing MTS reagent were added to the cells and viability was measured as described before. Glucose uptake rate was normalized to the cell viability measured by MTS assay in order to measure the uptake rate exclusively in the viable cells. (b) FACS-based readout: The experiment was performed as described before. […] The plates were then incubated with 2-NBDG solution, the cells were harvested by trypsination, washed, stained with PI, and analyzed using a flow cytometry.
# 22Rv1 cells [5] = assay: Analysis of cell cycle progression and DNA fragmentation (PI staining, FACS); type: cell-based, human; conditions: 22Rv1, 48 h
# Protocol: Cells (2 × 10^5 cells/well) were pre-incubated overnight in 6-well plates. Then, cells were treated with the substances in 2 mL of fresh culture media/well for 48 h. Cells were harvested by trypsination, fixed in 70% EtOH, stained with PI, and analyzed by FACS Calibur (BD Bioscience, San Jose, CA, USA). The results were quantified using BD Bioscience Cell Quest Pro v.5.2.1. software (BD Bioscience, San Jose, CA, USA). The sub-G1 population was considered to reflect apoptotic cells (containing fragmented DNA).
# [6] = test system: human drug-resistant prostate cancer PC-3 cells; assay: MTT cytotoxicity in PC-3 cells; type: cell-based; conditions: for IC50: 24 h, read-out: IC50 (viability of PC-3 cells)
# Protocol: as §1
# [7] = test system: five prostate cancer (LNCaP, 22Rv1, VCaP, PC-3, and DU145) vs. five non-cancer (PNT2, RWPE-1, HEK 293T, MRC-9, and HUVEC) cell lines; assay: Mean MTT cytotoxicity in five prostate cancer vs. five non-cancer cell lines; type: cell-based, human; conditions: 48 h
# Protocol: as §1
# PC-3 cells [8] = assay: Glucose uptake assay (2-NBDG), FACS-based readout; type: cell-based, human; conditions: PC-3, 24 h
# Protocol: as §2
# 22Rv1 cells [9] = assay: Western blotting of protein expression; type: cell-based, human; conditions: 22Rv1, 48 h
# Protocol: Cells (10^6 cells/well) were seeded in Petri dishes (ø 6 cm) and incubated overnight. The cells were treated with the investigational drugs in fresh culture media (5 mL/dish) for 48 h. Then, cells were harvested by scratching and lysed in the lysis buffer (1% NP-40, 50 mM Tris-HCl (pH 7.6), 0.88% NaCl, 0.25% sodium cholate, 1 mM Na3VO4, 0.1 mM PMSF, protease inhibitors cocktail (cOmplete Mini EDTA-free EASYpacks, Roche, Mannheim, Germany)). Proteins were extracted and diluted with lysis buffer and loading dye, heated 5 min at 99 °C and subjected to electrophoresis in gradient Mini-PROTEAN® TGX Stain-Free^TM gels (Bio-Rad, Hercules, CA, USA). Proteins were transferred from gel to 0.2 µm pore PVDF membrane using Trans-Blot® Turbo^TM RTA Mini PVDF Trans kit (Bio-Rad) and Trans-Blot® Turbo^TM Blotting System (Bio-Rad) according to the manufactures protocol. The membrane was blocked (5% BSA in 0.05% Tween-20/TBS), treated with primary and secondary antibodies, and the signals were detected using the ECL chemiluminescence system (Thermo Scientific, Rockford, IL, USA). All procedures were performed according to the manufacturer′s protocols.
# 22Rv1 cells [10] = assay: Analysis of intracellular ROS level (CM-H2DCFDA, FACS); type: cell-based, human; conditions: 2 h
# Protocol: Intracellular ROS levels were accessed using the ROS-sensitive CM-H2DCFDA reagent (Cat. No. C6827, Molecular probes, Invitrogen, Eugene, OR, USA). The experiment was performed as previously described with slight modifications. In brief, 22Rv1 cells (10^5 cells/well) were seeded in 12-well plates and incubated overnight. The media was changed with freshly made pre-warmed staining solution (4 µM CM-H2DCFDA/PBS, 0.5 mL/well) and incubated in the dark (37 °C, 5% CO2) for 30 min. Then, the staining solution was exchanged with 1 mL/well of pre-warmed PBS containing the investigated compounds or H2O2 (positive control) at the indicated concentrations and the cells were incubated for 2 h. Next, the cells were trypsinized, resuspended in pre-warmed PBS (200 µL/sample) and immediately analyzed by FACS according to the manufacture′s protocol.
compound,measurement,setting,value
"6-(6-Deoxy-D-glucopyranos-6-ylthio)-5,8-dihydroxy-7-methyl-2,3-dimethoxy-1,4-naphthoquinone [SAB-14]",effect of co-treatment with pan-caspase inhibitor zVAD on cytotoxic effects,PC-3 cells [1],antagonized the cytotoxic effects
same,IC50,22Rv1 cells [2],4.6 ± 2.9 µM
same,cells containing depolarized mitochondria (JC-1),"22Rv1 cells [3]; 22Rv1, 10 μM, 2 h",20.4±3.6%
same,cells containing depolarized mitochondria (JC-1),"22Rv1 cells [3]; 22Rv1, 10 μM, 48 h",47±1.0%
same,"glucose uptake (2-NBDG, plate reader), normalized to cell viability",PC-3 cells [4],inhibition of glucose uptake
same,DNA fragmentation (sub-G1 peak),22Rv1 cells [5],DNA fragmentation
same,cell cycle progression,22Rv1 cells [5],G2/M-cell cycle arrest
same,"selectivity index (SI), IC50 (PNT2)/IC50 (PC-3)","[6]; MTT, 48 h",> 2
same,IC50,"[6]; glucose-containing media (+Glc, 2 g/L)",22.6 ± 7.3 µM
same,IC50,[6]; glucose-free media (−Glc),4.7 ± 1.4 µM
same,selectivity to prostate cancer cells vs. non-cancer lines (mean cytotoxicity),[7],higher selectivity to the cancer cells
same,"glucose uptake (2-NBDG, single cells by flow cytometry), normalized to cell viability",PC-3 cells [8],inhibition of glucose uptake
same,cleavage of caspase-3 (Western blotting),22Rv1 cells [9],cleavage of caspase-3 was observed
same,p21 expression (Western blotting),22Rv1 cells [9],upregulation of p21
same,PARP cleavage (Western blotting),22Rv1 cells [9]; concentrations close to IC50s,PARP cleavage
same,"ROS level (CM-H2DCFDA, FACS)","22Rv1 cells [10]; 22Rv1, 5 μM",9.9±0.4%
"N#CC(C#N)=NNc1cccc(Cl)c1 [CCCP, 2-[2-(3-chlorophenyl)hydrazinylyidene]propanedinitrile, reference compound]",cells containing depolarized mitochondria (JC-1),"22Rv1 cells [3]; 22Rv1, 50 µM, 2 h",94±0.3%
same,cells containing depolarized mitochondria (JC-1),"22Rv1 cells [3]; 22Rv1, 50 µM, 48 h",92.1±1.8%
"OO [H2O2, reference compound]","ROS level (CM-H2DCFDA, FACS)","22Rv1 cells [10]; 22Rv1, 200 μM",68.4±1.5%
"CC(=O)O[C@@H]1O[C@H](CSC2=CC(=O)c3c(O)c(C)c(C)c(O)c3C2=O)[C@@H](OC(C)=O)[C@H](OC(C)=O)[C@H]1OC(C)=O [SAB-1, 2-(1,2,3,4-Tetra-O-acetyl-6-deoxy-β-D-glucopyranos-6-ylthio)-5,8-dihydroxy-6,7-dimethyl-1,4-naphthoquinone]",melting point,,203 to 205 °C
"CC(=O)O[C@@H]1O[C@H](CSc2c(C)c(O)c3c(c2O)C(=O)C(O)=C(O)C3=O)[C@@H](OC(C)=O)[C@H](OC(C)=O)[C@H]1OC(C)=O [SAB-3, 6-(1,2,3,4-Tetra-O-acetyl-6-deoxy-β-D-glucopyranos-6-ylthio)-2,3,5,8-tetrahydroxy-7-methyl-1,4-naphthoquinone]",melting point,,207 to 211 °C
"COc1c(O)c2c(c(O)c1SC[C@H]1O[C@@H](OC(C)=O)[C@H](OC(C)=O)[C@@H](OC(C)=O)[C@@H]1OC(C)=O)C(=O)C(O)=CC2=O [SAB-5, 7-(1,2,3,4-Tetra-O-acetyl-6-deoxy-β-D-glucopyranos-6-ylthio)-2,5,8-trihydroxy-6-methoxy-1,4-naphthoquinone]",melting point,,109 to 112 °C
"CC(=O)O[C@@H]1O[C@H](CSC2=C(C)C(=O)c3c(O)cccc3C2=O)[C@@H](OC(C)=O)[C@H](OC(C)=O)[C@H]1OC(C)=O [SAB-7, 2-(1,2,3,4-Tetra-O-acetyl-6-deoxy-β-D-glucopyranos-6-ylthio)-5-hydroxy-3-methyl-1,4-naphthoquinone]",melting point,,160 to 161 °C
"CC(=O)O[C@@H]1O[C@H](CSC2=C(SC[C@H]3O[C@@H](OC(C)=O)[C@H](OC(C)=O)[C@@H](OC(C)=O)[C@@H]3OC(C)=O)C(=O)c3c(O)c(C)c(C)c(O)c3C2=O)[C@@H](OC(C)=O)[C@H](OC(C)=O)[C@H]1OC(C)=O [SAB-9, 2,3-Di(1,2,3,4-tetra-O-acetyl-6-deoxy-β-D-glucopyranos-6-ylthio)-5,8-dihydroxy-6,7-dimethyl-1,4-naphthoquinone]",melting point,,202 to 205 °C
"CCC1=C(O)C(=O)c2c(O)c(SC[C@H]3O[C@@H](OC(C)=O)[C@H](OC(C)=O)[C@@H](OC(C)=O)[C@@H]3OC(C)=O)c(OC)c(O)c2C1=O [SAB-11, 7-(1,2,3,4-Tetra-O-acetyl-6-deoxy-β-D-glucopyranos-6-ylthio)-3-ethyl-2,5,8-trihydroxy-6-methoxy-1,4-naphthoquinone]",melting point,,167 to 171 °C
"CC(=O)O[C@@H]1O[C@H](CSc2c(C)c(O)c3c(c2O)C(=O)C(C)=C(C)C3=O)[C@@H](OC(C)=O)[C@H](OC(C)=O)[C@H]1OC(C)=O [SAB-15, 6-(1,2,3,4-Tetra-O-acetyl-6-deoxy-β-D-glucopyranos-6-ylthio)-5,8-dihydroxy-2,3,7-trimethyl-1,4-naphthoquinone]",melting point,,148 to 151 °C
"CCc1c(O)c2c(c(O)c1SC[C@H]1O[C@@H](OC(C)=O)[C@H](OC(C)=O)[C@@H](OC(C)=O)[C@@H]1OC(C)=O)C(=O)C(C)=C(C)C2=O [SAB-17, 6-(1,2,3,4-Tetra-O-acetyl-6-deoxy-β-D-glucopyranos-6-ylthio)-7-ethyl-5,8-dihydroxy-2,3-dimethyl-1,4-naphthoquinone]",melting point,,179 to 182 °C
"CC(=O)O[C@@H]1O[C@H](CSC2=C(Cl)C(=O)c3c(O)c(Cl)c(Cl)c(O)c3C2=O)[C@@H](OC(C)=O)[C@H](OC(C)=O)[C@H]1OC(C)=O [SAB-19, 2-(1,2,3,4-Tetra-O-acetyl-6-deoxy-β-D-glucopyranos-6-ylthio)-3,6,7-trichloro-5,8-dihydroxy-1,4-naphthoquinone]",melting point,,156 to 159 °C
"CC(=O)O[C@@H]1O[C@H](CSC2=CC(=O)c3c(O)ccc(O)c3C2=O)[C@@H](OC(C)=O)[C@H](OC(C)=O)[C@H]1OC(C)=O [SAB-21, 2-(1,2,3,4-Tetra-O-acetyl-6-deoxy-β-D-glucopyranos-6-ylthio)-5,8-dihydroxy-1,4-naphthoquinone]",melting point,,207 to 210 °C
"CC(=O)Oc1cccc2c1C(=O)C=C(SC[C@H]1O[C@@H](OC(C)=O)[C@H](OC(C)=O)[C@@H](OC(C)=O)[C@@H]1OC(C)=O)C2=O [SAB-25, 2-(1,2,3,4-Tetra-O-acetyl-6-deoxy-β-D-glucopyranos-6-ylthio)-5-acetoxy-1,4-naphthoquinone]",melting point,,172 to 175 °C
